Data: US20050043341A1, “3-'Hydroxy-(-4-trifluoromethylphenyl)-methyl-7-spirocyclobutyl-5,6,7 8-tetrahydroquinolin-5-ol derivatives and the use of the same as cholesterol ester transfer protein (cetp) inhibitors” (priority 2001, published 2005)

Columns and labels:
CETP [1] = biological target: T1, CETP (Homo sapiens, UniProt P11597); assay: CETP fluorescence test; format: biochemical; details: CETP from human plasma, 37° C., 4 hours; read-out: IC50 (nM) Fluor. test
T1 construct: CETP is obtained in partially purified form from human plasma; from tissue; host or cells: human plasma
T1 sequence (P11597 18-493): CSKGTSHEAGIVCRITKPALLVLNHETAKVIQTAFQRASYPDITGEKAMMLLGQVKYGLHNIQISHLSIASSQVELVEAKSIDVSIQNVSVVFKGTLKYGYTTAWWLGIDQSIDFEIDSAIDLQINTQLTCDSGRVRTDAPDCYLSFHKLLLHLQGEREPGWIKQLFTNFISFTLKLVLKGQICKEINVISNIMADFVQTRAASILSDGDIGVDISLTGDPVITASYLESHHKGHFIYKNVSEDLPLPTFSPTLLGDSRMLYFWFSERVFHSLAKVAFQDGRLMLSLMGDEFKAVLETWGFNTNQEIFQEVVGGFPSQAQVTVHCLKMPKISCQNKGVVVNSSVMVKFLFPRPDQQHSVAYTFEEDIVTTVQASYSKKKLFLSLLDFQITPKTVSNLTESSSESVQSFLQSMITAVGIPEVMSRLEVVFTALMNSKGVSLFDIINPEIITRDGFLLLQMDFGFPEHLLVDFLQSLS
Experimental: (§1) CETP is obtained in partially purified form from human plasma by differential centrifugation and column chromatography and used for the test. To this end, human plasma is adjusted to a density of 1.21 g per ml using NaBr and centrifuged at 4° C. at 50000 rpm for 18 h. The bottom fraction (d>1.21 g/ml) is applied to a Sephadex® Phenyl-Sepharose 4B (Pharmacia) column, washed with 0.15 M NaCl/0.001 M tris HCl pH 7.4 and then eluted with dist. water. Die CETP-active fractions are pooled, dialysed against 50 mM Na acetate pH 4.5 and applied to a CM-Sepharose® (Pharmacia) column. The mixture is then eluted using a linear gradient (0-1 M NaCl). The pooled CETP fractions are dialysed against 10 mM TrisHCl pH 7.4 and then further purified by chromatography on a Mono Q® column (Pharmacia).
Measurement of the CETP-catalysed transfer of a fluorescent cholesterol ester between liposomes—modified according to the procedure of Bisgaier et al., J. Lipid Res. 34, 1625 (1993).
For the production of the donor liposomes, 1 mg of cholesteryl 4,4-difluoro-5,7-dimethyl-4-bora-3a,4a-diaza-s-indacene-3-dodecanoate (cholesteryl BODIPY® FL C12, Molecular Probes) is dissolved in 600 μl of dioxane with 5.35 mg of triolein and 6.67 mg of phosphatidylcholine with gentle warming in an ultrasonic bath and this solution is added very slowly with ultrasonication to 63 ml of 50 mM tris/HCl, 150 mM NaCl, 2 mM EDTA buffer pH 7.3 at RT.
The suspension is then ultrasonicated under an N2 atmosphere for 30 minutes in the Braukson ultrasonic bath at about 50 watts, the temperature being kept at about 20° C.
The acceptor liposomes are obtained analogously from 86 mg of cholesteryl oleate, 20 mg of triolein and 100 mg of phosphatidylcholine dissolved in 1.2 ml of dioxane and 114 ml of above buffer by ultrasonication at 50 watts (20° C.) for 30 minutes.
For testing, a test mix consisting of 1 part of above buffer, 1 part of donor liposomes and 2 parts of acceptor liposomes is used.
80 μl of test mix are treated with 1-3 μg of enriched CETP fraction, obtained from human plasma by means of hydrophobic chromatography, and 2 μl of the substance to be investigated in DMSO and incubated at 37° C. for 4 hours.
The change in the fluorescence at 485/535 nm is a measure of the CE transfer; the inhibition of the transfer in comparison to the control batch without substance is determined.

CETP [2] = biological target: T1, CETP; assay: CETP-SPA test; format: biochemical; details: 3H-cholesterol ester transfer from HDL to biotin-LDL, 37° C., 18 h
Experimental: as §1
50 ml of fresh human EDTA plasma are adjusted to a density of 1.12 using NaBr and centrifuged at 4° C. in a Ty 65 rotor at 50000 rpm for 18 h. The upper phase is used for the obtainment of cold LDL. The lower phase is dialysed against 3×41 of PDB buffer (10 mM tris/HCl pH 7.4, […], 1 mM EDTA, 0.02% NaN3). Per 10 ml of retentate volume, 20 μl of 3H-cholesterol (Dupont NET-725; 1 μC/μl dissolved in ethanol!) is then added and the mixture is incubated at 37° C. under N2 for 72 h.
The batch is then adjusted to the density 1.21 using NaBr and centrifuged at 20° C. in a Ty 65 rotor at 50000 rpm for 18 h. The upper phase is recovered and the lipoprotein fractions are purified by gradient centrifugation. To this end, the isolated, labelled lipoprotein fraction is adjusted to a density of 1.26 using NaBr. 4 ml each of this solution are covered in centrifuged tubes (SW 40 rotor) with a layer of 4 ml of a solution of density 1.21 and 4.5 ml of a solution of 1.063 (density solutions of PDB buffer and NaBr) and then centrifuged for 24 h at 38000 rpm and 20° C. in the SW 40 rotor. The intermediate layer lying between the density 1.063 and 1.21, containing the labelled HDL, is dialysed against 3×100 volumes of PDB buffer at 4° C.
The retentate contains radiolabelled ^3H-CE-HDL, which, adjusted to about 5×10^6 cmp per ml, is used for the test.
For testing of the CETP activity, the transfer of ^3H-cholesterol ester from human HD lipoproteins to biotinylated LD lipoproteins is measured.
The reaction is ended by addition of streptavidin-SPA®beads (Amersham) and the transferred radioactivity is determined directly in a liquid scintillation counter.
In the test batch, 10 μl of HDL-^3H-cholesterol ester (˜50000 cpm) are incubated at 37° C. for 18 h with 10 μl of biotin-LDL (Amersham) in 50 mM Hepes/0.15 M NaCl/0.1% bovine serum albumin/0.05% NaN3 pH 7.4 containing 10 μl of CETP (1 mg/ml) and 3 μl of solution of the substance to be tested (dissolved in 10% DMSO/1% RSA). 200 μl of the SPA-streptavidin bead solution (TRKQ 7005) are then added, incubated further with shaking for 1 h and then measured in a scintillation counter.
Corresponding incubations with 10 μl of buffer, 10 μl of CETP at 4° C. and 10 μl of CETP at 37° C. serve as controls.
The activity transferred in the control batches with CETP at 37° C. is rated as 100% transfer. The substance concentration at which this transfer is reduced to half is specified as the IC50 value.

SMILES	IC50 (CETP [1]) [nM]	IC50 (CETP [2]) [nM]
CC(C)c1nc2c(c(-c3ccccc3)c1[C@@H](O)c1ccc(C(F)(F)F)cc1)[C@@H](O)CC1(CCC1)C2 [Example 53, (5S)-2-Isopropyl-4-phenyl-3-[(S)-hydroxy-(4-trifluoromethylphenyl)-methyl]-7-spirocyclobutyl-5,6,7,8-tetrahydroquinolin-5-ol]	30	30
CC(C)c1nc2c(c(-c3ccc(F)cc3)c1[C@@H](O)c1ccc(C(F)(F)F)cc1)[C@@H](O)CC1(CCC1)C2 [Example 51, (5S)-2-Isopropyl-4-(4-fluorophenyl)-3-[(S)-hydroxy-(4-trifluoromethylphenyl)-methyl]-7-spirocyclobutyl-5,6,7,8-tetrahydroquinolin-5-ol]	12	15
CC(C)c1nc2c(c(-c3cccs3)c1[C@@H](O)c1ccc(C(F)(F)F)cc1)[C@@H](O)CC1(CCC1)C2 [Example 61, (5S)-2-Isopropyl-4-(2-thienyl)-3-[(S)-hydroxy-(4-trifluoromethylphenyl)-methyl]-7-spirocyclobutyl-5,6,7,8-tetrahydroquinolin-5-ol]	30	40
